Test results reported in patent publication US20120128665A1, “PRESELECTION OF SUBJECTS FOR THERAPEUTIC TREATMENT BASED ON HYPOXIC STATUS” (SYNTA PHARMACEUTICALS CORP., priority 2010, published 2012).
Read-outs that look alike come from different tables or passages of the source.

Legend:
[1] = test system: advanced pancreatic cancer; details: Phase II, combination with Gemcitabine; cited from earlier work
[2] = test system: advanced pancreatic cancer; details: Phase III, combination with Gemcitabine; cited from earlier work
breast cancer = details: xenograft models; cited from earlier work
[3] = test system: previously treated metastatic renal cell carcinoma (mRCC); details: Phase III, 2010; cited from earlier work
[4] = test system: HCT116 tumors vs 786O tumors; experiment: response of hypoxic vs non-hypoxic tumors; format: in vivo, nude mice; details: doses as in the 3rd table
mTORC1 = mTORC1 (Homo sapiens, UniProt P42345); details: immune-kinase assays; cited from earlier work
mTORC2 = mTORC2 (Homo sapiens, UniProt P42345); details: immune-kinase assays; cited from earlier work
[5] = test system: phosphorylated RPS6 (ribosomal protein S6); details: TSC1-deficient cells; cited from earlier work
[6] = test system: mCRC pretreated with 5-FU/irinotecan; details: cited from earlier work
[7] = test system: metastatic colorectal cancer (mCRC); details: cited from earlier work
[8] = test system: HCT116 human colon carcinoma xenograft; experiment: HCT116 xenograft model (hypoxic tumor); format: in vivo, nude mice
Experimental: (§1) Human tumor cell lines HCT116 (ATCC #CRL-247; Schroy PC, et al. Cancer 76:201-209, 1995) and 786-O (ATCC #CRL-1932; Williams RD, et al. In Vitro 12:623-627, 1976), were obtained from the American Type Culture Collection (Manassus, Va., USA) were cultured using routine methods until a sufficient number of cells were obtained for implantation. Studies were conducted on animals between 7 and 12 weeks of age at implantation. To implant HCT116 tumor cells into nude mice, the cells were trypsinized, washed in PBS and resuspended at a concentration of 75×10^6 cells/ml in McCoy's modified medium with 50% of BD Matrigel® Basement Membrane Matrix (BD Biosciences®, Bedford, Mass., USA). To implant 786-O tumor cells into nude mice, the cells were trypsinized as above, washed in PBS and resuspended at a concentration of 75×10^6 cells/ml in RPMI 1640 medium with 50% of BD Matrigel® Basement Membrane Matrix. Using a 27 gauge needle and 1 cc syringe, 0.1 ml of the cell suspension was injected into the corpus adiposum of nude mice. The corpus adiposum is a fat body located in the ventral abdominal vicera in the right quadrant of the abdomen at the juncture of the os coxae (pelvic bone) and the os femoris (femur). The location permits palpation and measurement of the tumors using external calipers. Tumor volumes (V) were calculated by caliper measurement of the width (W), length (L) and thickness (T) of tumors using the following formula: V=0.5236×(L×W×T). Animals were randomized into treatment groups so that the average tumor volumes of each group were similar at the start of dosing.
(§2) A tumor model in which the tumors have relatively high and low levels of LDH5, indicating high and low levels of hypoxia, using human tumor cell lines HCT116 and 786-O was established as set forth in the previous example.
(§3) As above, HCT116 and 786-O cells were cultured and implanted into nude mice using the methods in the previous example. Tumor growth was measured using calipers. Prior to treatment with the various agents, tumors were permitted to develop in vivo until they reached approximately 150 mm^3 in volume, which typically required 2-3 weeks following implantation. Animals were randomized into treatment groups so that the average tumor volumes of each group were similar at the start of dosing.
(§4) Tumor volume was monitored throughout the course of the study, until up to about 40 days from the date of tumor implantation. The exact number of days of the study depended on a number of factors including, for example, the number of days from implantation for the tumors to reach the desired volume.

pancreatic cancer = details: PTK787 and gemcitabine, cited from earlier work
[9] = test system: metastatic colorectal cancer (mCRC); details: P <0.001, cited from earlier work
[10] = test system: 786-O human renal carcinoma xenograft; experiment: 786-O xenograft model (non-hypoxic tumor); format: in vivo, nude mice
Experimental: as §1, §2, §3, §4

JAK2V617F = JAK2V617F (Homo sapiens, UniProt O60674, V617F); details: cited from earlier work
JAK2V617F, sequence (O60674 whole entry V617F): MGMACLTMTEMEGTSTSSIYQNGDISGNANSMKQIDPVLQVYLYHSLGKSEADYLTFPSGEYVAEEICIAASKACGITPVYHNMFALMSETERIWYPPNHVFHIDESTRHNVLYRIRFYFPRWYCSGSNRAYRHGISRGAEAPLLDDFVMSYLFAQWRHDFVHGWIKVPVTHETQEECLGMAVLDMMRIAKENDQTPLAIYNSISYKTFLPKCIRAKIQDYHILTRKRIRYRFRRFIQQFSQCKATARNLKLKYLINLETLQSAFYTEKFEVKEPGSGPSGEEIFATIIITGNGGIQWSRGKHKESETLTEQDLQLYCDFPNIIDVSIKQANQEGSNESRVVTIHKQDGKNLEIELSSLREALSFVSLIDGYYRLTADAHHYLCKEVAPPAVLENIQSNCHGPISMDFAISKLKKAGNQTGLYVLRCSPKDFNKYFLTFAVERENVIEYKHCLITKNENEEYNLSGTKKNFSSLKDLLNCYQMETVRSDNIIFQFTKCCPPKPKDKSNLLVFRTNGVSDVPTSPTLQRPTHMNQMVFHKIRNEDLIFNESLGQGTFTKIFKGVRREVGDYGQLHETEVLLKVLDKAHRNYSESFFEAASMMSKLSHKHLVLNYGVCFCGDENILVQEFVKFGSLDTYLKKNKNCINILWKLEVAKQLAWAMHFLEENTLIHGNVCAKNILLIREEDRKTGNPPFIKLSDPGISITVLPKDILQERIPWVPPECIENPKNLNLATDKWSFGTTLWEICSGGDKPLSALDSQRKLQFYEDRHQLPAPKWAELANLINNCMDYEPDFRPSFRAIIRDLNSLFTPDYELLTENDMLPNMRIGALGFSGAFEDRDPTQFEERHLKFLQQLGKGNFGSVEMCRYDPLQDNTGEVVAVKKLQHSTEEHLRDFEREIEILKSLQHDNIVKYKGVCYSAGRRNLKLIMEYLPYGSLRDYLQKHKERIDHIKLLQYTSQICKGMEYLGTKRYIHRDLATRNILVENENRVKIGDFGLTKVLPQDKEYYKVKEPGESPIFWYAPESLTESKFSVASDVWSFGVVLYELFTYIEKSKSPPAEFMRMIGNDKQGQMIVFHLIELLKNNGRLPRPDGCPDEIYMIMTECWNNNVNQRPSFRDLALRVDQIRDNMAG

[11] = test system: locally advanced or metastatic NSCLC after failure of at least one chemotherapy regimen; details: erlotinib 150 mg orally once daily; cited from earlier work
[12] = test system: locally advanced, unresectable or metastatic pancreatic cancer; details: 100 mg cohort, erlotinib arm = plus gemcitabine, comparator gemcitabine alone, cited from earlier work; for progression free survival: p=0.006; for survival: p=0.028
[13] = test system: locally advanced or metastatic NSCLC; details: maintenance, cited from earlier work
VEGFR-2 [14] = molecular target: T1, VEGFR-2 (Mus musculus, UniProt P35918); details: in vivo, cited from earlier work
T1 construct: from tissue; host or cells: mouse lungs (in vivo)
T1 sequence (P35918 20-1345): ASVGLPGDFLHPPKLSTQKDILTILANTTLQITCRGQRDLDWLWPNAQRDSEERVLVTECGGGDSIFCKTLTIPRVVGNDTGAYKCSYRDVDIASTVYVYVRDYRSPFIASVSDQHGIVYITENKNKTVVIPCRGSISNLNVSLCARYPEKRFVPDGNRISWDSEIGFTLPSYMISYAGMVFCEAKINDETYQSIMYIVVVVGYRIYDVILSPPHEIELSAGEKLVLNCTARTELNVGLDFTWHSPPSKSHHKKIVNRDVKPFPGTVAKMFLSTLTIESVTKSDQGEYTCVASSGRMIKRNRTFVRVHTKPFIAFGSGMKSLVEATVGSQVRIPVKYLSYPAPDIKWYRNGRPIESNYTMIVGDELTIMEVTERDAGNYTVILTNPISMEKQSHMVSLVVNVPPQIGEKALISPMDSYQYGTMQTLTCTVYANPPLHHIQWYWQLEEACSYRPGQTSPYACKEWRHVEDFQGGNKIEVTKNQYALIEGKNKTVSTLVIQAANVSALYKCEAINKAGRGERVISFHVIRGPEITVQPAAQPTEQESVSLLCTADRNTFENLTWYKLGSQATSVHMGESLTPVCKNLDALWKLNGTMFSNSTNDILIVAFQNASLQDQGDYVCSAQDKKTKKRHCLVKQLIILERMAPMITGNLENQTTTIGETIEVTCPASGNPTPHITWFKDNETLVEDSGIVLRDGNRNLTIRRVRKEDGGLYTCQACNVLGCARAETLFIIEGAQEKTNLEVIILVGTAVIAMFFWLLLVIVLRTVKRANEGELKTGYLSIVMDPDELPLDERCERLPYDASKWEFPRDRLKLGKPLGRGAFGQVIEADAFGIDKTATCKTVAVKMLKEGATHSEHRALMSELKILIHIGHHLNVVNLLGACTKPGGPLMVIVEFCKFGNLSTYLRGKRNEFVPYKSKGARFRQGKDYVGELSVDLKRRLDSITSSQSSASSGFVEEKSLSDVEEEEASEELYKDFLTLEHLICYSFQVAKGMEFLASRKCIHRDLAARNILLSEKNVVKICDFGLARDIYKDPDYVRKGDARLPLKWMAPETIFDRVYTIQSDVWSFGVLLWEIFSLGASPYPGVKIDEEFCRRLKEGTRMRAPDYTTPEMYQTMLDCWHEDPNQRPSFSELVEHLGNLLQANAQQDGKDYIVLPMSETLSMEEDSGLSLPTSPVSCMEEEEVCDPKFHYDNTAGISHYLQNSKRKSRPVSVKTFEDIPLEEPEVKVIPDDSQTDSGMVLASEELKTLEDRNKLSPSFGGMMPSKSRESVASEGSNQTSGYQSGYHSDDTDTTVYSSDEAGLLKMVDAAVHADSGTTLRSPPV

PDGFR-β = PDGFR-β (Homo sapiens, UniProt P09619); details: in vitro; cited from earlier work
PDGFR-β, sequence (P09619 33-1106, species assumed): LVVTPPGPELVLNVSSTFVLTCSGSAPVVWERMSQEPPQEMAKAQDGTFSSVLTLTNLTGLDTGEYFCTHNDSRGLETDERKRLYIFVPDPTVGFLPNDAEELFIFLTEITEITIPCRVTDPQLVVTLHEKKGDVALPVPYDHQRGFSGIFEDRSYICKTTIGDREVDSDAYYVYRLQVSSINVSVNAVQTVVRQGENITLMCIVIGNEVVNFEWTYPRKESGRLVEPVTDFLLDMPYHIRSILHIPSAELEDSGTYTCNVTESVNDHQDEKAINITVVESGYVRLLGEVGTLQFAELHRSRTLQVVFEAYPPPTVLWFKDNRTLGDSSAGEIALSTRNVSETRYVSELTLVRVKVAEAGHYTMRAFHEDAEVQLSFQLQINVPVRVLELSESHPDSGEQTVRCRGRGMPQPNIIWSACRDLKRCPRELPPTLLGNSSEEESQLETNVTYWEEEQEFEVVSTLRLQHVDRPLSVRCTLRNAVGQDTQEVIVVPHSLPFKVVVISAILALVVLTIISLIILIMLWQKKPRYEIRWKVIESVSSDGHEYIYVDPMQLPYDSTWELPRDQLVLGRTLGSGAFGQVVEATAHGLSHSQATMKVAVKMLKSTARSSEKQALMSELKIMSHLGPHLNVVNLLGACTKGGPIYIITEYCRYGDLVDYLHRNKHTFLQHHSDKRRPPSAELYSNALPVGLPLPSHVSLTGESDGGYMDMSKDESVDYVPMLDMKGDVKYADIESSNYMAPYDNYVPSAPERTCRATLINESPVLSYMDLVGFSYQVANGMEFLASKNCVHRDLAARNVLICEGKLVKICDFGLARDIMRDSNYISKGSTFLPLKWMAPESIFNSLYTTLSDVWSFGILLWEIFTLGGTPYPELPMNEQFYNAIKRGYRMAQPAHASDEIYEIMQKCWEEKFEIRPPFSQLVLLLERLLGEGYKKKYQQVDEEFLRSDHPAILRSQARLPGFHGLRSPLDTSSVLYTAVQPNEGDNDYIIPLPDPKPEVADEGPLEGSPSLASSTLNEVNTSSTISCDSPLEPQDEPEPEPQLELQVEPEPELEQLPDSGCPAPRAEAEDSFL

angiogenesis = details: mouse model; cited from earlier work
human tumor xenografts = details: mice; cited from earlier work
RCC and poor prognosis = details: cited from earlier work
[15] = test system: renal cell carcinoma cell lines; details: cited from earlier work
[16] = test system: advanced RCC and poor prognosis; details: cited from earlier work; for progression-free survival / median overall survival: single agents; for progression-free survival: P=0.0001; for median overall survival: P=0.0078
VEGFR-2 [17] = molecular target: VEGFR-2 (Homo sapiens, UniProt P35968); details: in vitro; cited from earlier work
VEGFR-2 (Homo sapiens, UniProt P35968), sequence (P35968 20-1356, species assumed): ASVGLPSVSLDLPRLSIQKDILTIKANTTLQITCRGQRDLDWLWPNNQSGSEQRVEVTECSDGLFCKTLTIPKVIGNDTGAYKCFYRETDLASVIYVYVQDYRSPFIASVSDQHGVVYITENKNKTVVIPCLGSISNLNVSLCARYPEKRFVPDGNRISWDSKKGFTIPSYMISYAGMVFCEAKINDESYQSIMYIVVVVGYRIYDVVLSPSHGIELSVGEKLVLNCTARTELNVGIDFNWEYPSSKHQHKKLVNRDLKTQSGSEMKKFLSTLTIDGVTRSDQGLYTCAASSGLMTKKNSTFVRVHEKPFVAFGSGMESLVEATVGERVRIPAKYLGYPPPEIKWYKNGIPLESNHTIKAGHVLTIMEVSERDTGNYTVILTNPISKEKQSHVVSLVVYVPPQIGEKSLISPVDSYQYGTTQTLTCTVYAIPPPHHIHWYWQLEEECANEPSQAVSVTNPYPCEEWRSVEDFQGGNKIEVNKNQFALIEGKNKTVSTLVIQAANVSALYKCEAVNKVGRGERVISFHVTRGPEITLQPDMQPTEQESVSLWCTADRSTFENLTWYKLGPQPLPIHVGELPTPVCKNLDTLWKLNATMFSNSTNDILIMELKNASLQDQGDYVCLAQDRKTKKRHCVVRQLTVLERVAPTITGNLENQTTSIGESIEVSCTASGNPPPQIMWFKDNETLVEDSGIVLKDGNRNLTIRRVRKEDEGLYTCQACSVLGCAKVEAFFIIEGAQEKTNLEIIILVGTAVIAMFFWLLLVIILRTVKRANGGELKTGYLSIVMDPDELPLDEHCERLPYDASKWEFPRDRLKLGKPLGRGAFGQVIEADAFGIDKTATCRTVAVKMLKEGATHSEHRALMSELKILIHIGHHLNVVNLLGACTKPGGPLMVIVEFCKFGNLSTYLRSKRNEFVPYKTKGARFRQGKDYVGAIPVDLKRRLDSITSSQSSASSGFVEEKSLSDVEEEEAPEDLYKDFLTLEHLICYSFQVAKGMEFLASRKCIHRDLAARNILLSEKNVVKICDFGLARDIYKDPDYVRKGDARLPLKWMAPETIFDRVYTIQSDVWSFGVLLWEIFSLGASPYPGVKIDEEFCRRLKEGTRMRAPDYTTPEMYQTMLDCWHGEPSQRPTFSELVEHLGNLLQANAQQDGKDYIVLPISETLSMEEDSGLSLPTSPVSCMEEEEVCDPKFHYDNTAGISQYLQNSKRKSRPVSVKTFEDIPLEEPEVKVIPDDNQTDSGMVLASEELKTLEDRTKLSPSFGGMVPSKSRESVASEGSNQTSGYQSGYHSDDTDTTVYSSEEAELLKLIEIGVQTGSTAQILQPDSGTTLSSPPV

renal cancer = details: bevacizumab arm = with interferon-alpha; comparator interferon-alpha alone; cited from earlier work
[18] = 140 subjects with elevated LDH, log-rank p<0.005
[19] = 264 subjects with normal LDH, log-rank p=0.514

Compound: CNC(=O)c1ccccc1Sc1ccc2c(/C=C/c3ccccn3)n[nH]c2c1 [Axitinib, N-Methyl-2-[[3-[(E)-2-pyridin-2-ylethenyl]-1H-indazol-6-yl]sulfanyl]benzamide]
- response [1]: good response
- survival rates over Gemcitabine alone [2]: no evidence of improved survival rates
- growth of breast cancer (breast cancer): significantly inhibit growth
- progression-free survival compared to sorafenib [3]: significantly extended progression-free survival

Compound: Cn1c(=O)n(-c2ccc(C(C)(C)C#N)cc2)c2c3cc(-c4cnc5ccccc5c4)ccc3ncc21 [BEZ235]
- effectiveness at slowing tumor growth in tumors with high levels of hypoxia (HCT116) compared with low levels (786O) [4]: not found to work better
- mTORC1 kinase activity (mTORC1): blocks
- mTORC2 kinase activity (mTORC2): blocks
- levels of phosphorylated RPS6 [5]: significantly reduce

Compound: Clc1ccc(Nc2nnc(Cc3ccncc3)c3ccccc23)cc1 [PTK787, N-(4-chlorophenyl)-4-(pyridin-4-ylmethyl)phthalazin-1-amine]
- PFS HR ([6]; CONFIRM 2 - High LDH, N 250): 0.63
- PFS HR ([6]; CONFIRM 2 - Low LDH, N 605, P 0.58): 0.95
- PFS HR ([7]; CONFIRM 1 - High LDH, N 316, P 0.002): 0.61
- PFS HR ([7]; CONFIRM 1 - Low LDH, N 852, P 0.43): 0.93
- tumor growth as compared to control ([8]; 50 mg/kg 5×/week p.o., p=0.1209): reduced the growth of the tumor
- effectiveness at slowing tumor growth in tumors with high levels of hypoxia (HCT116) compared with low levels (786O) [4]: more effective
- duration of stable disease (pancreatic cancer): 2-6 months
- patients with stable disease as the best response (pancreatic cancer; six of eleven patients): 55%
- PFS HR ([9]; All CONFIRM 1 & 2 High LDH Patients, N 566): 0.62
- PFS HR ([9]; All CONFIRM 1 & 2 Patients, N 2023): 0.82
- tumor burden as compared to control ([10]; 50 mg/kg 5×/week p.o., p=0.7805): no difference in tumor burden
- tumor burden as compared to control ([10]; Erlotinib section, FIG. 5B, 1×/week p.o., p=0.8548): no difference in tumor burden
- tumor burden as compared to control ([10]; XL765 section, FIG. 4B, 30 mg/kg 5×/week p.o., p=0.7682): no difference in tumor burden

Compound: COc1cc(Nc2nc3ccccc3nc2NS(=O)(=O)c2ccc(NC(=O)c3ccc(C)c(OC)c3)cc2)cc(OC)c1 [XL765]
- tumor growth rate as compared to control ([8]; 30 mg/kg 5×/week p.o., p=0.009): reduced the growth rate of the tumor
- effectiveness at slowing tumor growth in tumors with high levels of hypoxia (HCT116) compared with low levels (786O) [4]: more effective

Compound: C#Cc1cccc(Nc2ncnc3cc(OCCOC)c(OCCOC)cc23)c1 [erlotinib]
- JAK2V617F activity (JAK2V617F): potent inhibitor
- progression free survival [11]: 9.9 weeks
- rate of one year survival [11]: 31.2%
- response duration, median [11]: 34.3 weeks
- survival [11]: 6.7 months
- tumor response [11]: 8.9%
- tumor growth rate as compared to control ([8]; 1×/week p.o., doses 40, 25, 10 mg/kg in the 3rd table, p=0.0224): reduced the growth rate of the tumor
- effectiveness at slowing tumor growth in tumors with high levels of hypoxia (HCT116) compared with low levels (786O) [4]: more effective
- progression free survival [12]: 3.8 months
- survival [12]: 6.4 months
- progression free survival ([13]; erlotinib 150 mg orally once daily): 2.8 months
- overall survival ([13]; difference not statistically significant): 12 weeks

Compound: Nc1ccn([C@@H]2O[C@H](CO)[C@@H](O)C2(F)F)c(=O)n1 [gemcitabine]
- progression free survival [12]: 3.5 months
- survival [12]: 6.0 months

Compound: Cc1ccc(Nc2nccc(N(C)c3ccc4c(C)n(C)nc4c3)n2)cc1S(N)(=O)=O.Cl [pazopanib]
- VEGF-induced VEGFR-2 phosphorylation (VEGFR-2 [14]; mouse lungs): inhibited
- ligand-induced autophosphorylation of PDGFR-β (PDGFR-β): inhibited
- angiogenesis (angiogenesis): inhibited
- growth of some human tumor xenografts (human tumor xenografts): inhibited

Compound: CNC(=O)c1cc(Oc2ccc(NC(=O)Nc3ccc(Cl)c(C(F)(F)F)c3)cc2)ccn1 [sorafenib]
- effectiveness at slowing tumor growth in tumors with high levels of hypoxia (HCT116) compared with low levels (786O) [4]: not found to work better

Compound: CCN(CC)CCNC(=O)c1c(C)[nH]c(/C=C2\C(=O)Nc3ccc(F)cc32)c1C [sutent]
- effectiveness at slowing tumor growth in tumors with high levels of hypoxia (HCT116) compared with low levels (786O) [4]: not found to work better

Compound: CO[C@H]1C[C@@H]2CC[C@@H](C)[C@@](O)(O2)C(=O)C(=O)N2CCCC[C@H]2C(=O)O[C@H]([C@H](C)C[C@@H]2CC[C@@H](OC(=O)C(C)(CO)CO)[C@H](OC)C2)CC(=O)[C@H](C)/C=C(\C)[C@@H](O)[C@@H](OC)C(=O)[C@H](C)C[C@H](C)/C=C/C=C/C=C/1C [temsirolimus]
- survival (RCC and poor prognosis; [18]): 6.9 months
- survival (RCC and poor prognosis; [19]): 11.7 months
- effectiveness at slowing tumor growth in tumors with high levels of hypoxia (HCT116) compared with low levels (786O) [4]: not found to work better
- activity of mTOR [15]: inhibited
- levels of HIF-1 and HIF-2 alpha, and vascular endothelial growth factor [15]: reduced levels
- overall survival compared with interferon-alpha alone ([16]; combination of temsirolimus and interferon-alpha): did not result in a significant increase in overall survival
- increase in median overall survival compared to interferon-alpha ([16]; human, in vivo): 49%
- progression-free survival [16]: 5.5 months
- median overall survival [16]: 10.9 months

Compound: Cediranib
- ligand-induced autophosphorylation of VEGFR-2 (VEGFR-2 [17]): inhibited
- VEGF-induced VEGFR-2 phosphorylation (VEGFR-2 [14]; mouse): inhibited
- angiogenesis (angiogenesis): inhibited
- growth of some human tumor xenografts (human tumor xenografts): inhibited

Compound: interferon-alpha
- survival (RCC and poor prognosis; [18]): 4.2 months
- survival (RCC and poor prognosis; [19]): 10.4 months
- patients with decreased tumor size (renal cancer): 12%
- progression-free survival [16]: 3.1 months
- median overall survival [16]: 7.3 months

Compound: panitumumab: Anti-EGFR
- effectiveness at slowing tumor growth in tumors with high levels of hypoxia (HCT116) compared with low levels (786O) [4]: not found to work better
